Assay results published in US9045482B2, “Pyrido[4,3-B]indoles and methods of use” (Medivation Technologies, Inc., priority 2009, dated 2015).

Assays:
[1] = target: human recombinant histamine H1 receptor (Homo sapiens, UniProt P35367); experiment: Histamine H1 radioligand binding ([3H]Pyrilamine); conditions: 1 μM; for inhibition at 1 µM: read-out: Binding data (Percentage Inhibition) Histamine Binding H1
Experimental: To evaluate in radioligand binding assays the activity of compounds of the invention, human recombinant histamine H1 receptor expressed in Chinese hamster ovary (CHO) cells [De Backer, M. et al., Biochem. Biophys. Res. Comm. (1993), 197(3):1601] in a modified Tris-HCl buffer (50 mM Tris-HCl, pH 7.4, 2 mM MgCl2, 100 mM NaCl, 250 mM Sucrose) was used. Compounds of the invention were incubated with 1.2 nM [^3H]Pyrilamine for 180 min at 25° C. Non-specific binding was estimated in the presence of 1 μM pyrilamine. Receptor proteins were filtered and washed, the filters were then counted to determine [^3H]Pyrilamine specifically bound. Compounds were screened at 1 μM or lower, using 1% DMSO as vehicle. Biochemical assay results are presented as the percent inhibition of specific binding in Table 2.

[2] = target: T1, human recombinant histamine H2 receptor (Homo sapiens, UniProt P25021); experiment: Histamine H2 radioligand binding (Aminopotentidine); conditions: read-out: Binding data (Percentage Inhibition) Histamine Binding H2
T1 construct: expressed in transfected cells; host or cells: Chinese hamster ovary (CHO) K1 cells
Experimental: To evaluate in radioligand binding assays the activity of compounds of the invention, human recombinant histamine H2 receptor expressed in Chinese hamster ovary (CHO) K1 cells [Ruat, M., Proc. Natl. Acad. Sci. USA. (1990), 87(5):1658] in a 50 mM Phosphate buffer, pH 7.4 was used. Compounds of the invention were incubated with 0.1 nM […] for 120 min at 25° C. Non-specific binding was estimated in the presence of 3 μM Tiotidine. Receptor proteins were filtered and washed, the filters were then counted to determine […] specifically bound. Compounds were screened at 1 μM or lower, using 1% DMSO as vehicle. Biochemical assay results are presented as the percent inhibition of specific binding in Table 2.

[3] = target: human recombinant dopamine D2L receptor (Homo sapiens, UniProt P14416); experiment: Dopamine D2L radioligand binding ([3H]Spiperone)
Experimental: To evaluate in radioligand binding assays the activity of compounds of the invention, human recombinant dopamine D2L receptor expressed in Chinese hamster ovary (CHO) cells [Grandy, D. K. et al., Proc. Natl. Acad. Sci. USA. (1989), 86:9762; Hayes, G. et al., Mol. Endocrinol. […] Compounds of the invention were incubated with 0.16 nM [^3H]Spiperone for 120 min at 25° C. Non-specific binding was estimated in the presence of 10 μM Haloperidol. Receptor proteins were filtered and washed, the filters were then counted to determine [^3H]Spiperone specifically bound. Compounds were screened at 1 μM or lower, using 1% DMSO as vehicle. Biochemical assay results are presented as the percent inhibition of specific binding in Table 3.

[4] = target: T2, human recombinant serotonin (5-Hydroxytryptamine) 5-HT2A receptor (Homo sapiens, UniProt P28223); experiment: Serotonin 5-HT2A radioligand binding ([3H]Ketanserin)
T2 construct: expressed in transfected cells; host or cells: Chinese hamster ovary (CHO-K1) cells
Experimental: (§1) (1997), 68:1998] in a 50 mM Tris-HCl buffer, pH 7.4, was used. Compounds of the invention were incubated with 0.5 nM [^3H]Ketanserin for 60 min at 25° C. Non-specific binding was estimated in the presence of 1 μM Mianserin. Receptor proteins were filtered and washed, the filters were then counted to determine [^3H]Ketanserin specifically bound. Compounds were screened at 1 μM or lower, using 1% DMSO as vehicle. Biochemical assay results are presented as the percent inhibition of specific binding in Table 4.

[5] = target: T3, human recombinant serotonin (5-Hydroxytryptamine) 5-HT2C receptor (Homo sapiens, UniProt P28335); experiment: Serotonin 5-HT2C radioligand binding ([3H]Mesulergine)
T3 construct: expressed in transfected cells; host or cells: Chinese hamster ovary (CHO-K1) cells
T3 sequence (P28335 33-458): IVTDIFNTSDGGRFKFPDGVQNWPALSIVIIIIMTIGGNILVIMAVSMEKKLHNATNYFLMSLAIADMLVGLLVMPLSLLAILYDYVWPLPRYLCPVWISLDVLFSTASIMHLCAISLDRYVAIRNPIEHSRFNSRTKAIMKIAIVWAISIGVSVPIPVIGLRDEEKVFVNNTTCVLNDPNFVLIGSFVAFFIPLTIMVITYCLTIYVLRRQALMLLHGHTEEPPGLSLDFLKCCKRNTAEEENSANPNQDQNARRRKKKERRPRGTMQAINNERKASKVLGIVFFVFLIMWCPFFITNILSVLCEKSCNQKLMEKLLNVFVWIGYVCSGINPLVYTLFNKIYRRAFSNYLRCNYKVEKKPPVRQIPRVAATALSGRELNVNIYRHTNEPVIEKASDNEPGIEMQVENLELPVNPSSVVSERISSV
Experimental: as §1, with “69:1449]” for “68:1998]”, “modified Tris-HCl buffer (50” for “50”, “Tris-HCl,” for “Tris-HCl buffer,”, “7.4, 0.1% Ascorbic Acid, 10 μM Pargyline)” for “7.4,”, “1” for “0.5”, “[^3H]Mesulergine” for “[^3H]Ketanserin”

[6] = target: T4, human recombinant serotonin (5-Hydroxytryptamine) 5-HT6 receptor (Homo sapiens, UniProt P50406); experiment: Serotonin 5-HT6 radioligand binding ([3H]LSD)
T4 construct: expressed in transfected cells; host or cells: human HeLa cells
Experimental: (§2) Compounds of the invention were incubated with 1.5 nM [3H]Lysergic acid diethylamide (LSD) for 120 min at 37° C. […] Receptor proteins were filtered and washed, the filters were then counted to determine [3H]LSD specifically bound. Compounds were screened at 1 μM or lower, using 1% DMSO as vehicle. Biochemical assay results are presented as the percent inhibition of specific binding in Table 4.

[7] = target: human recombinant serotonin (5-Hydroxytryptamine) 5-HT7 receptor (Homo sapiens, UniProt P34969); experiment: Serotonin 5-HT7 radioligand binding ([3H]LSD)
Experimental: as §2, with “of” for “of the”, “5.5” for “1.5”, “[^3H]Lysergic” for “[3H]Lysergic”, “2 h” for “120 min”, “25°” for “37°”, “[^3H]LSD” for “[3H]LSD”

Chain of human recombinant serotonin (5-Hydroxytryptamine) 5-HT7 receptor (P34969 whole entry): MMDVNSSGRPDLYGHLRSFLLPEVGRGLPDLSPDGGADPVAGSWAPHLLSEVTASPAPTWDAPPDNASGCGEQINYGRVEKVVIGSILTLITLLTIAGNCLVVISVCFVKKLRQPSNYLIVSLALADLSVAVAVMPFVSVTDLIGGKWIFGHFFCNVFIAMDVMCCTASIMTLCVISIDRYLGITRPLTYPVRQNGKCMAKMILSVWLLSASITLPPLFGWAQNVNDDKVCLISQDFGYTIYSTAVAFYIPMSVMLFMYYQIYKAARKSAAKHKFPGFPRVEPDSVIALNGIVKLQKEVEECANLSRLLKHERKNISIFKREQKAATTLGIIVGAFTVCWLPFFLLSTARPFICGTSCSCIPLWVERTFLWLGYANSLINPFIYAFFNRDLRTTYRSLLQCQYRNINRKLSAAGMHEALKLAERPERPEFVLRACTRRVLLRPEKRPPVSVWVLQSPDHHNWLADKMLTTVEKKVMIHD
Chain of human recombinant histamine H1 receptor (P35367 whole entry): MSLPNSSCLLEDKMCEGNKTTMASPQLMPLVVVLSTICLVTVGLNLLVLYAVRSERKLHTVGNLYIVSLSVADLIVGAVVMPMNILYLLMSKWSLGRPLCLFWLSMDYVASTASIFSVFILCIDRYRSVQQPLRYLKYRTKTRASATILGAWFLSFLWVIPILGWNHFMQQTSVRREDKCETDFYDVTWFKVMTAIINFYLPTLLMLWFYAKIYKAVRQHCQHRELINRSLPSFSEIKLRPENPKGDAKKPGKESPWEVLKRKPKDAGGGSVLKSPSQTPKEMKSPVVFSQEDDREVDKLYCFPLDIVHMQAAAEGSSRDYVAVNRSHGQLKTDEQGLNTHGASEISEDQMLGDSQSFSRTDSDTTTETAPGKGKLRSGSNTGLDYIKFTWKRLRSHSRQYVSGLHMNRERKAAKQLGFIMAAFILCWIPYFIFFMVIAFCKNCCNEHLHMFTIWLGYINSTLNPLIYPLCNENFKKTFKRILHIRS
T2 sequence (P28223 whole entry): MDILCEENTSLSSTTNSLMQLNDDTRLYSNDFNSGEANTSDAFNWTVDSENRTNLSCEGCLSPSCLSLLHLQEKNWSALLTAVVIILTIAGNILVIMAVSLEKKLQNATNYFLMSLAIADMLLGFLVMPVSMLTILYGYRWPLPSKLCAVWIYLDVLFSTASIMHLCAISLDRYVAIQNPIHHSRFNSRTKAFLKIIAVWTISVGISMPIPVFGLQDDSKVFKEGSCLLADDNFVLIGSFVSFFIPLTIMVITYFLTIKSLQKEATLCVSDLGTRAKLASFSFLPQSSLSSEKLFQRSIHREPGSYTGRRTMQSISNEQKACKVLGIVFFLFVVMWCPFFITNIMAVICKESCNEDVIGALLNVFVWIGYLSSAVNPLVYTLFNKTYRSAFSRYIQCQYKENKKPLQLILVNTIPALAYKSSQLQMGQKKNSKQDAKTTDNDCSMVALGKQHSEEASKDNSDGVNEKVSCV
Chain of human recombinant dopamine D2L receptor (P14416 whole entry): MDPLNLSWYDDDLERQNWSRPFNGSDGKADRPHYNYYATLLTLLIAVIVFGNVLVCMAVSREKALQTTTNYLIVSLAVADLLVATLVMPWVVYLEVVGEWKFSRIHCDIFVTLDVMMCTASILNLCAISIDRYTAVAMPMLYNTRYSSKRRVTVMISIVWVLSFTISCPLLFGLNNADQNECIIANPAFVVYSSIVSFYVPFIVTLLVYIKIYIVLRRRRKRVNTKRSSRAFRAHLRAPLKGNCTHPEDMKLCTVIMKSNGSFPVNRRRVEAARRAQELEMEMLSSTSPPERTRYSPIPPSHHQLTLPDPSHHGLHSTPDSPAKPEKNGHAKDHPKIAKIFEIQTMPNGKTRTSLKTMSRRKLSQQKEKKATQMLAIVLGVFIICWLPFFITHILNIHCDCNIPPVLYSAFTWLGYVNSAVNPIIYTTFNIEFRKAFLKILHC
T4 sequence (P50406 whole entry): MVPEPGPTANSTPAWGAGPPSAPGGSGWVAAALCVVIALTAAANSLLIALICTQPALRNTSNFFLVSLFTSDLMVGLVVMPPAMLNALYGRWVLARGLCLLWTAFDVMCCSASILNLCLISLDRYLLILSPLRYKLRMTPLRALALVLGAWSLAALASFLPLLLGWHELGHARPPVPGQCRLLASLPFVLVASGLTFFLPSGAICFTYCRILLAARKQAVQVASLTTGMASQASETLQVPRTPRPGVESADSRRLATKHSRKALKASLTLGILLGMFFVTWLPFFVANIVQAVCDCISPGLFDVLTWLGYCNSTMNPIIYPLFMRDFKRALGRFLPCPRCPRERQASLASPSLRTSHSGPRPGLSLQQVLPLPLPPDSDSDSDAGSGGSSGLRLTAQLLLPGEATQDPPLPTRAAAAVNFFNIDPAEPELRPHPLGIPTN
T1 sequence (P25021 whole entry): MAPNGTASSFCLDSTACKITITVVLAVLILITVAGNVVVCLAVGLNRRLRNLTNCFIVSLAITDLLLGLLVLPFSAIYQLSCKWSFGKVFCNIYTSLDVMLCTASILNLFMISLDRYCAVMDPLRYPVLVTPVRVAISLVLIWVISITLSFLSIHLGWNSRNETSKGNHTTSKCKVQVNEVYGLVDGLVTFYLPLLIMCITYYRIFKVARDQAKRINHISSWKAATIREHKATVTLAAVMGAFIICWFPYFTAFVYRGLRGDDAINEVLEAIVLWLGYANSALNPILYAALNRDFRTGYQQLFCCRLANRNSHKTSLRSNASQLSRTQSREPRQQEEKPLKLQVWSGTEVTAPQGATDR

SMILES | inhibition at 1 µM [1] [%] | inhibition at 1 µM [2] [%] | Percent Inhibition of ligand binding Dopamine D2L ([3]; 1 μM ligand conc.) [%] | Percent Inhibition of ligand binding Serotonin 5-HT2A ([4]; 1 μM ligand concentration) [%] | Percent Inhibition of ligand binding Serotonin 5-HT2C ([5]; 1 μM ligand concentration) [%] | Percent Inhibition of ligand binding Serotonin 5-HT6 ([6]; 1 μM ligand concentration) [%] | Percent Inhibition of ligand binding Serotonin 5-HT7 ([7]; 1 μM ligand concentration) [%] | Binding data (Percentage Inhibition) Histamine Binding H1 [1] [%] | Percent Inhibition of ligand binding Dopamine D2L ([3]; 0.1 μM ligand conc.) [%] | Percent Inhibition of ligand binding Serotonin 5-HT2A ([4]; 0.1 μM ligand concentration) [%] | Percent Inhibition of ligand binding Serotonin 5-HT2C ([5]; 0.1 μM ligand concentration) [%] | Percent Inhibition of ligand binding Serotonin 5-HT6 ([6]; 0.1 μM ligand concentration) [%] | Percent Inhibition of ligand binding Serotonin 5-HT7 ([7]; 0.1 μM ligand concentration) [%]
CC(=Cn1c2c(c3cc(C)ccc31)CN1CCCC1C2)c1ccc(F)cc1 (stereo in doubt) [Compound 3, (E)-10-(2-(4-fluorophenyl)prop-1-enyl)-7-methyl-2,3,5,10,11,11a-hexahydro-1H-indolizino [7,6-b]indole] | 88 | 97 | 11 | 90 | 99 | 101 | 94 |  |  |  |  |  | 
CC(=Cn1c2c(c3cc(C)ccc31)C1CCCN1CC2)c1ccc(F)cc1 (stereo in doubt) [Compound 4, (E)-7-(2-(4-fluorophenyl)prop-1-enyl)-10-methyl-2,3,5,6,7,11c-hexahydro-1H-indolizino[7,8-b]indole] | 41 | 75 | 90 | 99 | 99 | 103 | 101 | 53 | 59 | 87 | 88 | 100 | 
CC(=Cn1c2c(c3cc(C)ccc31)CN1CCCCC1C2)c1ccc(F)cc1 (stereo in doubt) [Compound 5, (E)-5-(2-(4-fluorophenyl)prop-1-enyl)-2-methyl-5,6,6a,7,8,9,10,12-octahydroindolo[2,3-b]quinolizine] | 76 | 97 | 28 | 98 | 92 | 96 | 97 |  |  |  |  |  | 
CC(=Cn1c2c(c3cc(C)ccc31)C1CCCCN1CC2)c1ccc(F)cc1 (stereo in doubt) [Compound 6, (E)-8-(2-(4-fluorophenyl)prop-1-enyl)-11-methyl-1,2,3,4,6,7,8,12c-octahydroindolo[3,2-a]quinolizine] | 28 | 67 | 94 | 99 | 94 | 105 | 92 |  |  |  |  |  | 
FC(F)(F)c1ccc(CCn2c3c(c4cccnc42)CN2CCCC2C3)cn1 (stereo not drawn) [Compound 39, 11-(2-(6-(trifluoromethyl)pyridin-3-yl)ethyl)-7,8,9,9a,10,11-hexahydro-5H-pyrido[3′,2′:4,5]pyrrolo[3,2-f]indolizine] |  |  |  |  |  |  |  |  |  | 24 |  | −5 | 2
FC(F)(F)c1ccc(CCn2c3c(c4cccnc42)C2CCCN2CC3)cn1 (stereo not drawn) [Compound 40, 7-(2-(6-(trifluoromethyl)pyridin-3-yl)ethyl)-2,3,5,6,7,11c-hexahydro-1H-pyrido[3′,2′:4,5]pyrrolo[2,3-g]indolizine] |  |  |  |  |  |  |  |  |  | 6 |  | 1 | 10
Cc1cnc2c(c1)c1c(n2CCc2ccc(C(F)(F)F)nc2)CCN2CCCC12 (stereo not drawn) [Compound 43, 10-methyl-7-(2-(6-(trifluoromethyl)pyridin-3-yl)ethyl)-2,3,5,6,7,11c-hexahydro-1H-pyrido[3′,2′:4,5]pyrrolo[2,3-g]indolizine] |  |  |  |  |  |  |  |  |  | 7 |  | 5 | 22
Cc1cnc2c(c1)c1c(n2CCc2ccc(C(F)(F)F)nc2)CC2CCCN2C1 (stereo not drawn) [Compound 44, 3-methyl-11-(2-(6-(trifluoromethyl)pyridin-3-yl)ethyl)-7,8,9,9a,10,11-hexahydro-5H-pyrido[3′,2′:4,5]pyrrolo[3,2-f]indolizine] |  |  |  |  |  |  |  |  |  | 65 |  | 9 | 24
